Series [1] relates to NCI-H1373-luc ICA tumor model. Description: in vivo anti-tumor efficacy, intra-carotid artery metastatic brain tumor model (bioluminescence). More on the design: species or system Nu/Nu mice. As to conditions: for T/C / TGI: day 21, from log 10 Bioluminescence. An excerpt:
The objective of this Example is to evaluate the in vivo anti-tumor efficacy of AMG510 (positive control KRAS G12C inhibitor), MRTX 849 (positive control KRAS G12C inhibitor) and HBI-2438 (a KRAS G12C inhibitor of the invention) in NCH-H1373-luc ICA, an intra-carotid artery metastatic brain tumor model, in Nu/Nu mice. HBI-2438 (the compound of Formula Ia) was supplied by Huyabio International, LLC. This intra-carotid artery model is well recognized in the art for evaluating the ability of a target compound to treat metastatic brain tumor.
All the procedures related to animal handling, care and the treatment in the study were performed according to the guidelines approved by the Institutional Animal Care and Use Committee (IACUC) of WuXi AppTec, following the guidance of the Association for Assessment and Accreditation of Laboratory Animal Care (AAALAC). At the time of routine monitoring, the animals were checked daily for tumor growth and any effects of treatments on normal behavior such as mobility, food and water consumption (by looking only), body weight gain/loss (body weights were measured twice per week), eye/hair matting and any other abnormal effect as stated in the protocol. Death and observed clinical signs were recorded on the basis of the numbers of animals within each subset.
Methods: The NCI-H1373-luc tumor cells were maintained in medium supplemented with 10% heat inactivated fetal bovine serum at 37° C. in an atmosphere of 5% CO2 in air. The tumor cells were routinely subcultured twice weekly. The cells growing in an exponential growth phase were harvested and counted for tumor inoculation. Each mouse was inoculated with NCI-H1373-luc tumor cells (0.5×10^5) in 100 μL of PBS. The animals were randomized and treatments were started when the Bioluminescence signal reached 8*10^6. After grouping, the bioluminescence measurements were taken once per week with IVIS (Lumina II).
Each mouse was inoculated with NCI-H1373-luc tumor cells (0.5×10^5) in 100 μL of PBS. The animals were randomized and treatments were started when the Bioluminescence signal reached 8*10^6. After grouping, the bioluminescence measurements were taken once per week with IVIS (Lumina II).
Tumor growth inhibition rate for test articles in the NCI-H1373-luc model was calculated based on log 10 Bioluminescence measurement at day 21 after the start of treatment, as shown in Table 3.

Series [2] relates to colorectal cancer xenograft model CR2528. Description: in vivo therapeutic efficacy, subcutaneous HuPrime colorectal cancer xenograft model (tumor volume). The arrangement: species or system female BALB/c Nude mice. The following applies: Day 20. How it is done: The above test articles were administered as single agent or in specific combination settings as described in Table 4. […] HBI-2438 and HBI-2376 (the compound of Formula Ia and the compound of Formula IIa, respectively) were supplied by Huyabio International, LLC.
(c) Tumor Inoculation: Tumor fragments from stock mice were harvested and used for inoculation into mice. Each mouse was inoculated subcutaneously in the right flank with CR2528 model tumor fragment (2-3 mm in diameter) for tumor development on May 25, 2022.
(d) Randomization: The randomization started when the mean tumor size reached 160 mm^3. 99 mice were enrolled in the study. All animals were randomly allocated to 11 study groups, 9 mice in each group. Randomization was performed based on “Matched distribution” method/“Stratified” method (StudyDirector™ software, version 3.1.399.19)/randomized block design. The date of randomization was denoted as day 0 (Jun. 13, 2022).
(§1) Tumor volumes were measured twice per week after randomization in two dimensions using a caliper, and the volume was expressed in mm^3 using the formula: “V=(L×W×W)/2, where V is tumor volume, L is tumor length (the longest tumor dimension) and W is tumor width (the longest tumor dimension perpendicular to L). Dosing as well as tumor and body weight measurements were conducted in a Laminar Flow Cabinet. The body weights and tumor volumes were measured by using StudyDirector™ software (version 3.1.399.19).
The treatments on both primary and secondary studies were performed for 3 weeks. The primary study was terminated on Day 21 with plasma and tumor samples collection. For secondary analysis tumor samples were collected after the final dose and were transferred in a sterile tube, to be frozen into liquid nitrogen. All the frozen tumor samples were stored in −80° C.

The format of series [3] is in vivo. The following applies: for BW change: Day 20 vs Day 0. The protocol: Observation and Data Collection: After tumor cells inoculation, the animals were checked daily for morbidity and mortality. During routine monitoring, the animals were checked for any effects of tumor growth and treatments on behavior such as mobility, food and water consumption, body weight gain/loss (body weights were measured twice per week after randomization), eye/hair matting and any other abnormalities. Mortality and observed clinical signs were recorded for individual animals in detail.
as §1

Setting [4] is: 30 mg/kg PO QD, day 0 after start of treatment.

SMILES strings stand for the structures. “And” between values parts separate entries of the source, which are not always exact repeats. Equal values may be shown once. Read-outs that look alike come from different tables or passages of the source.

The text below walks through data of US20240252490A1, “Combination Therapies Comprising Kras Inhibitors and SPH2 Inhibitors” (HUYABIO International, LLC, priority 2022, published 2024).

Broadly, the T/C is the ratio of treated to control.

With `C=CC(=O)N1CCN(c2nc(=O)n(-c3c(C)ccnc3C(C)C)c3nc(-c4c(O)cccc4F)c(F)cc23)[C@@H](C)C1` [AMG-510, reference compound], the “log 10 Bioluminescence (mean ± SEM)” value is 6.86 ± 0.09 in series [1] (setting [4]); 6.12 ± 0.06 in series [1] (30 mg/kg PO QD, day 7); 6.32 ± 0.25 in series [1] (30 mg/kg PO QD, day 14); 6.69 and 6.69 ± 0.3 in series [1] (30 mg/kg PO QD, day 21). Moreover, the T/C in series [1] (30 mg/kg PO QD) worked out at 79.3%. Also, the TGI in series [1] (30 mg/kg PO QD) worked out at 111.5%.

As to `C[C@@H]1OCC2(CCN(c3cnc(Sc4cccc(NC(=O)c5c(O)nc6n(c5=O)CCCC6)c4Cl)cn3)CC2)[C@@H]1N` [HBI-2376, N-(3-((5-((3S,4S)-4-amino-3-methyl-2-oxa-8-azaspiro[4.5]decan-8-yl)pyrazin-2-yl)thio)-2-chlorophenyl)-2-hydroxy-4-oxo-6,7,8,9-tetrahydro-4H-pyrido[1,2-a]pyrimidine-3-carboxamide], in series [2] (5 mg/kg QD), the T/C was found to be 27.18%, the TGI was determined as 72.82% and the “Tumor Volume (mean ± SEM)” value came to 469.69 ± 81.71 mm^3. For the same compound, in series [3] (5 mg/kg QD), the “Day 0 BW (mean ± SEM)” value is 22.79 ± 0.69, the “Day 20 BW (mean ± SEM)” value was 22.03 ± 1.05 and the BW change is −3.36%. Also, in series [3] (5 mg/kg QD, on Day 20), the “Maximum mean BWL” value was −3.36% on.

With `C=CC(=O)N1C[C@@H]2C(=O)N(CCN(C)C)c3c(c4cc(Cl)c(-c5c(O)cccc5F)nc4n(-c4c(C)ccnc4C(C)C)c3=O)N2C[C@H]1C` [HBI-2438], the T/C in series [2] (10 mg/kg QD) came out at 84.37%; in series [2] (30 mg/kg QD) it was 52.41%; in series [2] (100 mg/kg QD) it was 43.69%; in series [1] (15 mg/kg PO QD) it was 78.1%; in series [1] (30 mg/kg PO QD) it was 71.2%; in series [1] (100 mg/kg PO QD) it was 72.2%. The TGI in series [2] (10 mg/kg QD) is reported as 15.63%; in series [2] (30 mg/kg QD), 47.59%; in series [2] (100 mg/kg QD), 56.31%; in series [1] (15 mg/kg PO QD) it was 118.2%; in series [1] (30 mg/kg PO QD), 155.8%; in series [1] (100 mg/kg PO QD), 150.0%. Further, the results for the “Tumor Volume (mean ± SEM)” value in series [2] (10 mg/kg QD), in series [2] (30 mg/kg QD) and in series [2] (100 mg/kg QD) were 1458.01 ± 164.19 mm^3, 905.6 ± 108.46 mm^3 and 754.97 ± 98 mm^3, respectively. Moreover, the figures for the “Day 0 BW (mean ± SEM)” value in series [3] (10 mg/kg QD), in series [3] (30 mg/kg QD) and in series [3] (100 mg/kg QD) were 22.32 ± 0.57, 22.54 ± 0.61 and 21.91 ± 0.57, respectively. The “Day 20 BW (mean ± SEM)” value in series [3] (10 mg/kg QD) is recorded as 22.19 ± 0.81; in series [3] (30 mg/kg QD), 23.89 ± 0.58; in series [3] (100 mg/kg QD), 22.31 ± 0.71. Also, the BW change is reported as −0.62% in series [3] (10 mg/kg QD), 6.12% in series [3] (30 mg/kg QD) and 1.86% in series [3] (100 mg/kg QD). The “Maximum mean BWL” value in series [3] (10 mg/kg QD, on Day 20) is reported as −0.62% on; in series [3] (30 mg/kg QD), “No BWL”; in series [3] (100 mg/kg QD), “No BWL”. Further, the “log 10 Bioluminescence (mean ± SEM)” value in series [1] (15 mg/kg PO QD, day 0 after start of treatment) was 6.86 ± 0.11; in series [1] (15 mg/kg PO QD, day 7), 6.49 ± 0.14; in series [1] (15 mg/kg PO QD, day 14), 6.44 ± 0.2; in series [1] (15 mg/kg PO QD, day 21), 6.58 and 6.58 ± 0.21; in series [1] (setting [4]), 6.86 ± 0.1; in series [1] (30 mg/kg PO QD, day 7) it was 6.09 ± 0.07. Moreover, the “log 10 Bioluminescence (mean ± SEM)” value in series [1] (30 mg/kg PO QD, day 14) is 5.86 ± 0.12; in series [1] (30 mg/kg PO QD, day 21), 6.00 and 6.00 ± 0.13; in series [1] (100 mg/kg PO QD, day 0 after start of treatment) it was 6.86 ± 0.11; in series [1] (100 mg/kg PO QD, day 7), 5.92 ± 0.09; in series [1] (100 mg/kg PO QD, day 14) it was 6.04 ± 0.2; in series [1] (100 mg/kg PO QD, day 21) it was 6.09 and 6.09 ± 0.24.

In the case of `C=C(F)C(=O)N1CCN(c2nc(OC[C@@H]3CCCN3C)nc3c2CCN(c2cccc4cccc(Cl)c24)C3)C[C@@H]1CC#N` [MRTX849, reference compound], the T/C in series [2] (100 mg/kg QD) was found to be 41.56%; in series [1] (30 mg/kg PO QD), 71.3%. For the same compound, the TGI in series [2] (100 mg/kg QD) is reported as 58.44%; in series [1] (30 mg/kg PO QD), 152.6%. Besides, the “Tumor Volume (mean ± SEM)” value in series [2] (100 mg/kg QD) stood at 718.22 ± 151.89 mm^3. Also, the “log 10 Bioluminescence (mean ± SEM)” value in series [1] (setting [4]) is 6.83 ± 0.14; in series [1] (30 mg/kg PO QD, day 7), 6.38 ± 0.21; in series [1] (30 mg/kg PO QD, day 14) it was 6.24 ± 0.18; in series [1] (30 mg/kg PO QD, day 21), 6.01 and 6.01 ± 0.14.

In the case of `C[C@@H]1OCC2(CCN(c3cnc(Sc4ccnc(N)c4Cl)c(N)n3)CC2)[C@@H]1N` [TNO-155, reference compound], in series [2] (5 mg/kg QD), the T/C was determined as 53.02%, the TGI came out at 46.98% and the “Tumor Volume (mean ± SEM)” value came to 916.21 ± 100.32 mm^3.
